Laboratory results from paper PMC6185959 (2018).
Blank lines part the entries; values can stand above or below the compound they belong to.

Experiments:
[1] = tested on: Pu22 (MYC G4) (DNA, G4) TGAGGGTGGGGAGGGTGGGGAA; test: WaterLOGSY NMR; settings: 50 mM KCl, Tris-d11 pH 6.4, 20 °C, 5 µM oligo, 100 µM compound
[2] = tested on: Alexa Fluor 647-Pu27 (MYC G4) (DNA, G4) TGGGGAGGGTGGGGAGGGTGGGGAAGG; test: fluorescence intensity titration; settings: 50 mM KCl, 25 mM Tris pH 6.4, 2-3% DMSO, RT, 50 nM oligo, 2:1 model
[3] = tested on: 5'-biotin Pu27 (MYC G4) (DNA, G4) TGGGGAGGGTGGGGAGGGTGGGGAAGG; test: SPR; settings: 30 mM KCl; 10 mM Tris pH 6.4, 3% DMSO, 0.01% Tween-20; 1:1 Langmuir, highest affinity site
[4] = tested on: Pu22 (MYC G4) (DNA, G4) TGAGGGTGGGGAGGGTGGGGAA; test: CD melting; settings: 30 mM KCl; 10 mM Tris pH 6.3, 1% DMSO; 10 µM oligo, 40 µM compound; Table S2 prints 7.6 ± 0.5
[5] = tested on: Pu27 (MYC G4) (DNA, G4) TGGGGAGGGTGGGGAGGGTGGGGAAGG; test: CD melting; settings: 30 mM KCl; 10 mM Tris pH 6.3, 1% DMSO; 10 µM oligo, 40 µM compound
[6] = tested on: 131 (DNA, G4) TGAGGGTGGGTAAGGGTGGGTAA; test: CD melting; settings: 30 mM KCl; 10 mM Tris pH 6.3, 1% DMSO; 10 µM oligo, 40 µM compound
[7] = tested on: 122 (DNA, G4) TGAGGGTGGGTAGGGTAGGGTAA; test: CD melting; settings: 30 mM KCl; 10 mM Tris pH 6.3, 1% DMSO; 10 µM oligo, 40 µM compound
[8] = tested on: 221 (DNA, G4) TGAGGGTAGGGTAGGGTGGGTAA; test: CD melting; settings: 30 mM KCl; 10 mM Tris pH 6.3, 1% DMSO; 10 µM oligo, 40 µM compound
[9] = tested on: 333 (DNA, G4) TGAGGGTTAGGGTAAGGGTTAGGGTAA; test: CD melting; settings: 30 mM KCl; 10 mM Tris pH 6.3, 1% DMSO; 10 µM oligo, 40 µM compound
[10] = tested on: GAT Tail (A25T) (DNA, G4) TGAGGGTGGGGAGGGTGGGGAT; test: CD melting; settings: 30 mM KCl; 10 mM Tris pH 6.3, 1% DMSO; 10 µM oligo, 40 µM compound
[11] = tested on: no tail (DNA, G4) GGGTGGGGAGGGTGGG; test: CD melting; settings: 30 mM KCl; 10 mM Tris pH 6.3, 1% DMSO; 10 µM oligo, 40 µM compound
[12] = tested on: BCl2 (DNA, G4) AGGGGCGGGCGCGGGAGGAAGGGGGCGGGA; test: CD melting; settings: 30 mM KCl; 10 mM Tris pH 6.3, 1% DMSO; 10 µM oligo, 40 µM compound
[13] = tested on: HIF1a (DNA, G4) GGGAGGGAGAGGGGGCGGG; test: CD melting; settings: 30 mM KCl; 10 mM Tris pH 6.3, 1% DMSO; 10 µM oligo, 40 µM compound
[14] = tested on: MYB (DNA, G4) GGAGGAGGAGGTCACGGAGGAGGAGGAGAAGGAGGAGGAGGA; test: CD melting; settings: 30 mM KCl; 10 mM Tris pH 6.3, 1% DMSO; 10 µM oligo, 40 µM compound
[15] = tested on: dsDNA (DNA, duplex) CAATCGGATCGAATTCGATCCGATTG; test: CD melting; settings: 30 mM KCl; 10 mM Tris pH 6.3, 1% DMSO; 10 µM oligo, 40 µM compound
[16] = tested on: MYC Pu22 G14T/G23T (NMR, 121) (DNA, G4) TGAGGGTGGGTAGGGTGGGTAA; test: solution NMR structure; settings: 50 mM KCl; 25 mM Tris-d11 pH 6.4, 25 °C; twofold excess compound; 5' and 3' tetrads
[17] = tested on: MYC Pu22 G14T/G23T (NMR, 121) (DNA, G4) TGAGGGTGGGTAGGGTGGGTAA; test: 1H NMR titration, imino shifts; settings: 50 mM KCl; 25 mM Tris-d11 pH 6.4, 10% DMSO-d6, 25 °C; overall KD, non-cooperative fit
[18] = tested on: Alexafluor647-KRAS (DNA, G4) AGGGCGGTGTGGGAAGAGGGAAGAGGGGGAGGCAG; test: fluorescence intensity titration; settings: 50 mM KCl; 25 mM Tris pH 6.4, 2-3% DMSO, RT; 50 nM oligo; 2:1 model
[19] = tested on: Alexafluor647-BCL2 (DNA, G4) AGGGGCGGGCGCGGGAGGAAGGGGGCGGGA; test: fluorescence intensity titration; settings: 50 mM KCl; 25 mM Tris pH 6.4, 2-3% DMSO, RT; 50 nM oligo; 2:1 model
[20] = tested on: Alexafluor647-Telomeric DNA (DNA, G4) TTAGGGTTAGGGTTAGGGTTAGGGTTA; test: fluorescence intensity titration; settings: 50 mM KCl; 25 mM Tris pH 6.4, 2-3% DMSO, RT; 50 nM oligo; 2:1 model
[21] = tested on: Alexafluor647-VEGF (DNA, G4) CGGGGCGGGCCGGGGGCGGGGT; test: fluorescence intensity titration; settings: 50 mM KCl; 25 mM Tris pH 6.4, 2-3% DMSO, RT; 50 nM oligo; 2:1 model
[22] = tested on: Alexafluor647-NRAS (RNA, G4) UGUGGGAGGGGCGGGUCUGGG; test: fluorescence intensity titration; settings: 50 mM KCl; 25 mM Tris pH 6.4, 2-3% DMSO, RT; 50 nM oligo; 2:1 model

binding ([1]; internal non-binding control): no
SMILES: CN[C@H](C(=O)O)C(C)C

KD [2]: 0.0232 ± 0.0076 mM
SMILES: Cc1ccc(NC(=O)c2c(C)oc3ccc(O)c(CN4CCCCCC4)c23)cc1

KD [3]: 1.4 ± 1.2 µM | ΔTm [4]: 7.4 ± 0.5 °C | ΔTm [5]: 7.5 ± 2.0 °C | ΔTm [6]: 4.6 ± 0.3 °C | ΔTm [7]: 7.0 ± 0.3 °C | ΔTm [8]: 4.0 ± 1.0 °C | ΔTm [9]: 0.0 ± 1.0 °C | ΔTm [10]: 4.5 ± 0.8 °C | ΔTm [11]: 4.3 ± 1.7 °C | ΔTm [12]: 4.2 ± 0.4 °C | ΔTm [13]: 0.2 ± 1.1 °C | ΔTm [14]: 1.5 ± 0.3 °C | ΔTm [15]: 0.6 ± 0.7 °C | binding [1]: yes | binding [16]: yes | KD [17]: 0.0165 ± 0.0011 mM | KD ([2]; Table S1 prints 9.1 ± 1.1): 0.0094 ± 0.0011 mM | KD [18]: 0.0442 ± 0.0038 mM | KD [19]: 0.0173 ± 0.0044 mM | KD [20]: 0.0403 ± 0.01 mM | KD [21]: 0.0183 ± 0.0034 mM | binding [22]: weak
SMILES: Cc1oc2ccc(O)c(CN3CCCCCC3)c2c1C(=O)Nc1ccc(C(F)(F)F)cc1
